{
  "source": "patent US6762227B1",
  "about": "“Inhibition of marine biofouling of surfaces” (I-Tech AB, priority 1999, dated 2004)",
  "key": {"[1]": {"tested_on": "Cyprid larvae from Balanus improvisus", "procedure": "Cyprid larvae from Balanus improvisus were transferred to Petri dishes containing seawater from the Swedish west coast and medetomidine in various concentrations (0.1 nM, 1 nM, 10 nM, 100 nM and 1 μM). In addition, for control purposes, cyprid larvae were transferred to a Petri dish containing seawater only. After 11 days the cyprids were counted and classified as either 1) settled (established) on the surface of the Petri dish, 2) swimming, i.e. living, not established, or 3) dead. The results in the table are expressed in percentage of the total number of organisms in each group (=n).\nThis example corresponds to Example 1 with the exception that medetomidine was replaced by clonidine in the concentrations defined in Table 2 below."}, "[2]": {"tested_on": "cyprid larvae", "details": "for Dead / Settled / Swimming: cleaned, reading after 7 days", "protocol": "Petri dishes of hydrophilic polystyrene were filled with a solution of medetomidine in varying concentrations (0 ng/ml 10 ng/ml, 1 μg/ml and 10 μg/ml). […] After a 24 hour incubation period in room temperature the dishes were cleaned thoroughly with seawater. The dishes were then incubated with cyprid larvae in amounts of approximately 20 larvae/dish. Readings were taken under microscope after 7 days, and the larvae were classified as either settled, free-swimming or dead."}, "[3]": {"tested_on": "cyprid larvae", "details": "cleaned, as Example 3", "protocol": "Petri dishes of hydrophilic polystyrene were filled with a solution of medetomidine in varying concentrations (0 ng/ml 10 ng/ml, 1 μg/ml and 10 μg/ml). Like in Example 1, one Petri dish with no medetomidine was used as control. After a 24 hour incubation period in room temperature the dishes were cleaned thoroughly with seawater. The dishes were then incubated with cyprid larvae in amounts of approximately 20 larvae/dish. Readings were taken under microscope after 7 days, and the larvae were classified as either settled, free-swimming or dead.\nExample 3 was repeated, with the difference that Petri dishes of hydrophobic polystyrene were used instead of hydrophilic dishes."}, "[4]": {"tested_on": "acorn barnacles (Balanus improvisus)", "details": "for Number of Balanus improvisus/10 cm^2: acrylate-based paint with 0.02% by weight medetomidine", "protocol": "Medetomidine was added to an acrylate-based paint formula to a concentration of 0.02% by weight (or 170 μg/ml). The paint was then applied on 10 test surfaces dimensioned 10×10 cm^2. The surfaces were allowed to dry at room temperature and were then mounted on racks, which were placed at a depth of about one meter in a bay in the sea offshore from Strömstad, Sweden, and were allowed to remain there during August and September of 1999. After 2, 4 and 8 weeks, respectively, the test surfaces were removed from the sea and the number of acorn barnacles (Balanus improvisus) were counted."}, "[5]": {"tested_on": "tube building polychaetes (Hydroides elegans)", "details": "for Dead / Settled / Swimming: incubated two days", "protocol": "The polychaete larvae were incubated for two days in Petri dishes containing sea water and were then classified as either settled, free swimming or dead, like in Example 1. The water originated from the coast outside Sydney, Australia, and the experiment was carried out in May 1999."}, "[6]": {"details": "medetomidine 0.1 nM, after 11 days, % of total organisms"}, "[7]": {"details": "medetomidine 1 nM, after 11 days, % of total organisms"}, "[8]": {"details": "medetomidine 10 nM, after 11 days, % of total organisms"}, "[9]": {"details": "medetomidine 100 nM, after 11 days, % of total organisms"}, "[10]": {"details": "medetomidine 1000 nM, after 11 days, % of total organisms"}, "[11]": {"details": "hydrophilic polystyrene dish pre-incubated 24 h with medetomidine 1 ng/ml"}, "[12]": {"details": "hydrophilic polystyrene dish pre-incubated 24 h with medetomidine 10 ng/ml"}, "[13]": {"details": "hydrophilic polystyrene dish pre-incubated 24 h with medetomidine 1000 ng/ml"}, "[14]": {"details": "hydrophilic polystyrene dish pre-incubated 24 h with medetomidine 10000 ng/ml"}, "[15]": {"details": "hydrophobic polystyrene dish pre-incubated with medetomidine 1 ng/ml"}, "[16]": {"details": "hydrophobic polystyrene dish pre-incubated with medetomidine 10 ng/ml"}, "[17]": {"details": "hydrophobic polystyrene dish pre-incubated with medetomidine 1000 ng/ml"}, "[18]": {"details": "hydrophobic polystyrene dish pre-incubated with medetomidine 10000 ng/ml"}, "[19]": {"details": "clonidine 0.027 ng/ml, as Example 1"}, "[20]": {"details": "clonidine 0.27 ng/ml, as Example 1"}, "[21]": {"details": "clonidine 2.7 ng/ml, as Example 1"}, "[22]": {"details": "clonidine 27 ng/ml, as Example 1"}, "[23]": {"details": "clonidine 270 ng/ml, as Example 1"}},
  "note": "Like-named read-outs stand apart in the source and are kept apart here.",
  "data": [
    {"smiles": "Cc1cccc(C(C)c2cnc[nH]2)c1C", "note": "(racemic) [medetomidine, (±)-4-[1-(2,3-dimethylphenyl)-ethyl]-1H-imidazole-mono-hydrogen chloride]", "values": [
      {"measurement": "Dead", "setting": "[1]; [6]", "result": 0, "unit": "%"},
      {"measurement": "Settled", "setting": "[1]; [6]", "result": 52, "unit": "%"},
      {"measurement": "Swimming", "setting": "[1]; [6]", "result": 48, "unit": "%"},
      {"measurement": "Dead", "setting": "[1]; [7]", "result": 0, "unit": "%"},
      {"measurement": "Settled", "setting": "[1]; [7]", "result": 1.5, "unit": "%"},
      {"measurement": "Swimming", "setting": "[1]; [7]", "result": 98, "unit": "%"},
      {"measurement": "Dead", "setting": "[1]; [8]", "result": 0, "unit": "%"},
      {"measurement": "Settled", "setting": "[1]; [8]", "result": 0, "unit": "%"},
      {"measurement": "Swimming", "setting": "[1]; [8]", "result": 100, "unit": "%"},
      {"measurement": "Dead", "setting": "[1]; [9]", "result": 0, "unit": "%"},
      {"measurement": "Settled", "setting": "[1]; [9]", "result": 0, "unit": "%"},
      {"measurement": "Swimming", "setting": "[1]; [9]", "result": 100, "unit": "%"},
      {"measurement": "Dead", "setting": "[1]; [10]", "result": 0, "unit": "%"},
      {"measurement": "Settled", "setting": "[1]; [10]", "result": 0, "unit": "%"},
      {"measurement": "Swimming", "setting": "[1]; [10]", "result": 100, "unit": "%"},
      {"measurement": "number of established larvae", "setting": "[1]; upon increased concentration of medetomidine (0.1 nM to 1 μM)", "result": "decreased upon increased concentration"},
      {"measurement": "number of dead cyprids", "setting": "[1]; upon increased contents of medetomidine (0.1 nM to 1 μM)", "result": "did not increase"},
      {"measurement": "number of settled acorn barnacles", "setting": "[2]; also at very low medetomidine incubation concentrations", "result": "significant reduction"},
      {"measurement": "Dead", "setting": "[2]; [11]", "result": 0, "unit": "%"},
      {"measurement": "Settled", "setting": "[2]; [11]", "result": 6.2, "unit": "%"},
      {"measurement": "Swimming", "setting": "[2]; [11]", "result": 93.8, "unit": "%"},
      {"measurement": "Dead", "setting": "[2]; [12]", "result": 0, "unit": "%"},
      {"measurement": "Settled", "setting": "[2]; [12]", "result": 0, "unit": "%"},
      {"measurement": "Swimming", "setting": "[2]; [12]", "result": 100, "unit": "%"},
      {"measurement": "Dead", "setting": "[2]; [13]", "result": 0, "unit": "%"},
      {"measurement": "Settled", "setting": "[2]; [13]", "result": 0, "unit": "%"},
      {"measurement": "Swimming", "setting": "[2]; [13]", "result": 100, "unit": "%"},
      {"measurement": "Dead", "setting": "[2]; [14]", "result": 0, "unit": "%"},
      {"measurement": "Settled", "setting": "[2]; [14]", "result": 0, "unit": "%"},
      {"measurement": "Swimming", "setting": "[2]; [14]", "result": 100, "unit": "%"},
      {"measurement": "Dead", "setting": "[3]; [15]", "result": 0, "unit": "%"},
      {"measurement": "Settled", "setting": "[3]; [15]", "result": 63.1, "unit": "%"},
      {"measurement": "Swimming", "setting": "[3]; [15]", "result": 36.9, "unit": "%"},
      {"measurement": "Dead", "setting": "[3]; [16]", "result": 2.1, "unit": "%"},
      {"measurement": "Settled", "setting": "[3]; [16]", "result": 33.3, "unit": "%"},
      {"measurement": "Swimming", "setting": "[3]; [16]", "result": 65, "unit": "%"},
      {"measurement": "Dead", "setting": "[3]; [17]", "result": 0, "unit": "%"},
      {"measurement": "Settled", "setting": "[3]; [17]", "result": 0, "unit": "%"},
      {"measurement": "Swimming", "setting": "[3]; [17]", "result": 100, "unit": "%"},
      {"measurement": "Dead", "setting": "[3]; [18]", "result": 2.1, "unit": "%"},
      {"measurement": "Settled", "setting": "[3]; [18]", "result": 0, "unit": "%"},
      {"measurement": "Swimming", "setting": "[3]; [18]", "result": 97.9, "unit": "%"},
      {"measurement": "Number of Balanus improvisus/10 cm^2", "setting": "[4]; 2 weeks in the sea", "result": "4.63 ± 1.04 /10 cm^2"},
      {"measurement": "Number of Balanus improvisus/10 cm^2", "setting": "[4]; 4 weeks in the sea", "result": "5.6 ± 1.4 /10 cm^2"},
      {"measurement": "Number of Balanus improvisus/10 cm^2", "setting": "[4]; 8 weeks in the sea", "result": "148.1 ± 16.24 /10 cm^2"},
      {"measurement": "number of acorn barnacles on the test surfaces compared with the control surfaces", "setting": "[4]; paint with 0.02% by weight medetomidine, 2, 4 and 8 weeks", "result": "significant reduction"},
      {"measurement": "effect on settling of polychaete larvae", "setting": "[5]; concentration span of from 0.1 nM to 100 μM", "result": "significant inhibiting effect"},
      {"measurement": "Dead", "setting": "[5]; medetomidine 0.1 nM", "result": 2.3, "unit": "%"},
      {"measurement": "Settled", "setting": "[5]; medetomidine 0.1 nM", "result": 9.3, "unit": "%"},
      {"measurement": "Swimming", "setting": "[5]; medetomidine 0.1 nM", "result": 88.4, "unit": "%"},
      {"measurement": "Dead", "setting": "[5]; medetomidine 1 nM", "result": 5.4, "unit": "%"},
      {"measurement": "Settled", "setting": "[5]; medetomidine 1 nM", "result": 5.4, "unit": "%"},
      {"measurement": "Swimming", "setting": "[5]; medetomidine 1 nM", "result": 89.2, "unit": "%"},
      {"measurement": "Dead", "setting": "[5]; medetomidine 10 nM", "result": 4.4, "unit": "%"},
      {"measurement": "Settled", "setting": "[5]; medetomidine 10 nM", "result": 0, "unit": "%"},
      {"measurement": "Swimming", "setting": "[5]; medetomidine 10 nM", "result": 95.6, "unit": "%"},
      {"measurement": "Dead", "setting": "[5]; medetomidine 100 nM", "result": 20, "unit": "%"},
      {"measurement": "Settled", "setting": "[5]; medetomidine 100 nM", "result": 0, "unit": "%"},
      {"measurement": "Swimming", "setting": "[5]; medetomidine 100 nM", "result": 80, "unit": "%"},
      {"measurement": "Dead", "setting": "[5]; medetomidine 1000 nM", "result": 45.7, "unit": "%"},
      {"measurement": "Settled", "setting": "[5]; medetomidine 1000 nM", "result": 0, "unit": "%"},
      {"measurement": "Swimming", "setting": "[5]; medetomidine 1000 nM", "result": 54.3, "unit": "%"},
      {"measurement": "Dead", "setting": "[5]; medetomidine 100 000 nM", "result": 100, "unit": "%"},
      {"measurement": "Settled", "setting": "[5]; medetomidine 100 000 nM", "result": 0, "unit": "%"},
      {"measurement": "Swimming", "setting": "[5]; medetomidine 100 000 nM", "result": 0, "unit": "%"},
      {"measurement": "toxic effects on polychaete larvae", "setting": "[5]; span from 100 nM to 100 μM", "result": "toxic effects appear"}
    ]},
    {"smiles": "Clc1cccc(Cl)c1NC1=NCCN1", "note": "[clonidine, 2-(2,6-di-chloro-anilino)-2-imidazoline]", "values": [
      {"measurement": "Dead", "setting": "[1]; Balanus improvisus, in vivo, 11 days, 0.027 ng/ml", "result": 0, "unit": "%"},
      {"measurement": "Dead", "setting": "[1]; Balanus improvisus, in vivo, 11 days, 0.27 ng/ml", "result": 0, "unit": "%"},
      {"measurement": "Dead", "setting": "[1]; Balanus improvisus, in vivo, 11 days, 2.7 ng/ml", "result": 1.7, "unit": "%"},
      {"measurement": "Dead", "setting": "[1]; Balanus improvisus, in vivo, 11 days, 27 ng/ml", "result": 1.5, "unit": "%"},
      {"measurement": "Dead", "setting": "[1]; Balanus improvisus, in vivo, 11 days, 270 ng/ml", "result": 8.3, "unit": "%"},
      {"measurement": "Settled", "setting": "[1]; [19]", "result": 36.7, "unit": "%"},
      {"measurement": "Swimming", "setting": "[1]; [19]", "result": 65.7, "unit": "%"},
      {"measurement": "Settled", "setting": "[1]; [20]", "result": 22.3, "unit": "%"},
      {"measurement": "Swimming", "setting": "[1]; [20]", "result": 77.7, "unit": "%"},
      {"measurement": "Settled", "setting": "[1]; [21]", "result": 1.8, "unit": "%"},
      {"measurement": "Swimming", "setting": "[1]; [21]", "result": 96.5, "unit": "%"},
      {"measurement": "Settled", "setting": "[1]; [22]", "result": 0, "unit": "%"},
      {"measurement": "Swimming", "setting": "[1]; [22]", "result": 98.5, "unit": "%"},
      {"measurement": "Settled", "setting": "[1]; [23]", "result": 0, "unit": "%"},
      {"measurement": "Swimming", "setting": "[1]; [23]", "result": 91.7, "unit": "%"}
    ]}
  ]
}
